Data published in ChEMBL document CHEMBL5518236, “Discovery of Clinical Candidate AZD5462, a Selective Oral Allosteric RXFP1 Agonist for Treatment of Heart Failure” (J Med Chem, 2024).

Assays:
[1] = Metabolic stability in human hepatocytes assessed as intrinsic clearance measured per 10^6 viable cells/ml at 1 uM measured upto 120 mins by LC-MS/MS analysis; type: ADME, cell-based, Hepatocyte; conditions: read-out: CLH
Relaxin receptor 1 = target: T1, Relaxin receptor 1 (Homo sapiens, UniProt Q9HBX9)
T1 sequence (Q9HBX9 whole entry): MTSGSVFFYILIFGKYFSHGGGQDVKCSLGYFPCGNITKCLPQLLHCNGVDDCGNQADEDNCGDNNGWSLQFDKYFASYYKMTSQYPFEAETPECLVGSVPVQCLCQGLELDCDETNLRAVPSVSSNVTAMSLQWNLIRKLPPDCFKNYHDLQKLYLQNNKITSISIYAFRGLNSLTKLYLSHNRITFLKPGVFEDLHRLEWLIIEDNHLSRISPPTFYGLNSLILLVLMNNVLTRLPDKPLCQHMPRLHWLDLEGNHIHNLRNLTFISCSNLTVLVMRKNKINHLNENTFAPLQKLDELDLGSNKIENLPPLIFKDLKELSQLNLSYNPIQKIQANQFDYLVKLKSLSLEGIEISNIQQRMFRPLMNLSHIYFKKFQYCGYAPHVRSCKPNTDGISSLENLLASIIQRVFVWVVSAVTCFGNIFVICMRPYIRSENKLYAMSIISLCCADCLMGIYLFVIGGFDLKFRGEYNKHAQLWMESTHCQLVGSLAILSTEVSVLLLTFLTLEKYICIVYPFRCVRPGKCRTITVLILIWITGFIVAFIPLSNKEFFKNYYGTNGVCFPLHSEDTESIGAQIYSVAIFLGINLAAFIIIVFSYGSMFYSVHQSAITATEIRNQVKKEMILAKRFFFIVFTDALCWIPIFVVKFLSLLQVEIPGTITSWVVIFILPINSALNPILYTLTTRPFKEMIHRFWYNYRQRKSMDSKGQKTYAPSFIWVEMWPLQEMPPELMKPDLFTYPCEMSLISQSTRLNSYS
Description: Agonist activity at human RXFP1 expressed in CHO cells assessed as increase in cAMP level measured after 2 hrs by HTRF cAMP assay

[2] = Metabolic stability in human liver microsomes assessed as unbound intrinsic clearance at 1 uM measured upto 30 mins by LC-MS/MS analysis; type: ADME, Microsome; conditions: 0.5 h
[3] = Metabolic stability in human hepatocytes assessed as unbound intrinsic clearance measured per 10^6 viable cells/ml at 1 uM measured upto 120 mins by LC-MS/MS analysis; type: ADME, cell-based, Hepatocyte; conditions: 2 h
[4] = Octanol/water partition coefficient, logD of the compound at pH 7.4 by shake flask method; type: physicochemical
[5] = Metabolic stability in human liver microsomes assessed as intrinsic clearance at 1 uM measured upto 30 mins by LC-MS/MS analysis; type: ADME, Microsome; conditions: read-out: CLH
[6] = Apparent permeability across apical to basolateral side in human Caco-2 cells at pH 7.4 by LC-MS/MS analysis; type: ADME, cell-based; conditions: Caco-2, pH 7.4

SMILES	EC50 (Relaxin receptor 1)	CL free [2]	logD [4]	microsomal CLint at 1 µM [5]	Papp A→B [6]	hepatocyte CLint at 1 µM [1]	CL free [3]
COc1cc(F)c(C[C@H]2CC[C@@](C)(C(=O)O)CC2)cc1C(=O)N[C@@H]1[C@H]2CC[C@H](C2)[C@@H]1C(=O)NCC1(C)CCC1	158 nM	269 µL/min/mg	4.3	78 µL/min/mg		9.8 µL/min/1e6 cells	43 µL/min
CC1(CNC(=O)[C@H]2[C@@H]3CC[C@@H](C3)[C@H]2NC(=O)c2ccc(F)c(O[C@H]3CC[C@@](C)(C(=O)O)CC3)c2)CCC1	316 nM	8.8 µL/min/mg	3	6.6 µL/min/mg		8.4 µL/min/1e6 cells	16 µL/min
CC1(CNC(=O)[C@H]2[C@@H]3CC[C@@H](C3)[C@H]2N2CCc3cc(F)c(O[C@H]4CC[C@@](C)(C(=O)O)CC4)cc3C2=O)CCC1	1580 nM	70 µL/min/mg		44 µL/min/mg		2.1 µL/min/1e6 cells	3 µL/min
COc1cc(F)c(O[C@H]2CC[C@](C(=O)O)(C(F)(F)F)CC2)cc1C(=O)N[C@@H]1[C@H]2CC[C@H](C2)[C@@H]1C(=O)NCC1(C)CCC1		< 5.5 µL/min/mg	2.1	< 3 µL/min/mg	35 ×10⁻⁶ cm/s	3.9 µL/min/1e6 cells	8.8 µL/min
Cc1cc(F)c(O[C@H]2CC[C@@](C)(C(=O)O)CC2)cc1C(=O)N[C@@H]1[C@H]2CC[C@H](C2)[C@@H]1C(=O)NCC1(C)CCC1	2000 nM	23 µL/min/mg	2.83	161 µL/min/mg		15 µL/min/1e6 cells	22 µL/min
COc1cc(F)c(O[C@H]2CC[C@@](C)(c3noc(=O)[nH]3)CC2)cc1C(=O)N[C@@H]1[C@H]2CC[C@H](C2)[C@@H]1C(=O)NCC1(C)CCC1	79.4 nM	212 µL/min/mg	3.8	87 µL/min/mg		12 µL/min/1e6 cells	
COc1cc(F)c(O[C@H]2CC[C@@](CO)(C(=O)O)CC2)cc1C(=O)N[C@@H]1[C@H]2CC[C@H](C2)[C@@H]1C(=O)NCC1(C)CCC1		< 6.2 µL/min/mg	1.5	< 5.1 µL/min/mg	3.1 ×10⁻⁶ cm/s	6.2 µL/min/1e6 cells	11 µL/min
CC1(CNC(=O)[C@H]2[C@@H]3CC[C@@H](C3)[C@H]2NC(=O)c2cc(O[C@H]3CC[C@@](C)(C(=O)O)CC3)c(F)cc2F)CCC1		49 µL/min/mg	2.9	37 µL/min/mg		6.7 µL/min/1e6 cells	10 µL/min
COc1c(C)cc(O[C@H]2CC[C@@](C)(C(=O)O)CC2)cc1C(=O)N[C@@H]1[C@H]2CC[C@H](C2)[C@@H]1C(=O)NCC1(C)CCC1		10 µL/min/mg	2.9	7 µL/min/mg		5.6 µL/min/1e6 cells	8.9 µL/min
COc1c(Cl)cc(O[C@H]2CC[C@@](C)(C(=O)O)CC2)cc1C(=O)N[C@@H]1[C@H]2CC[C@H](C2)[C@@H]1C(=O)NCC1(C)CCC1		147 µL/min/mg	3.3	81 µL/min/mg		13 µL/min/1e6 cells	31 µL/min
COc1c(F)cc(O[C@H]2CC[C@@](C)(C(=O)O)CC2)cc1C(=O)N[C@@H]1[C@H]2CC[C@H](C2)[C@@H]1C(=O)NCC1(C)CCC1		73 µL/min/mg	3.3	44 µL/min/mg		5.3 µL/min/1e6 cells	9.5 µL/min
COc1c(C#N)cc(O[C@H]2CC[C@@](C)(C(=O)O)CC2)cc1C(=O)N[C@@H]1[C@H]2CC[C@H](C2)[C@@H]1C(=O)NCC1(C)CCC1	79.4 nM	69 µL/min/mg	2.9	50 µL/min/mg		11 µL/min/1e6 cells	16 µL/min
COCc1cc(OC)c(C(=O)N[C@@H]2[C@H]3CC[C@H](C3)[C@@H]2C(=O)NCC2(C)CCC2)cc1O[C@H]1CC[C@@](C)(C(=O)O)CC1	1000 nM	15 µL/min/mg	3	11 µL/min/mg		3.2 µL/min/1e6 cells	44 µL/min
COc1cc(F)c(O[C@H]2CC[C@@](C)(C(=O)O)CC2)cc1C(=O)N[C@@H]1[C@H]2CC[C@H](C2)[C@@H]1C(=O)NCC(C)(C)C(F)(F)F		23 µL/min/mg	3.19	13 µL/min/mg	66 ×10⁻⁶ cm/s	4.2 µL/min/1e6 cells	8.6 µL/min

Now from value to compound, other results behind:

EC50 (Relaxin receptor 1)	CL free [2]	logD [4]	microsomal CLint at 1 µM [5]	Papp A→B [6]	SMILES	hepatocyte CLint at 1 µM [1]	CL free [3]
100 nM	20 µL/min/mg	2.4	17 µL/min/mg		CC1(CNC(=O)[C@H]2[C@@H]3CC[C@@H](C3)[C@H]2NC(=O)c2cc(O[C@H]3CC[C@@](C)(C(=O)O)CC3)c(C#N)cn2)CCC1	3.1 µL/min/1e6 cells	4.2 µL/min
79.4 nM	18 µL/min/mg	1.4	13 µL/min/mg		COc1cc(F)c(O[C@H]2CC[C@@](CC#N)(C(=O)O)CC2)cc1C(=O)N[C@@H]1[C@H]2CC[C@H](C2)[C@@H]1C(=O)NCC1(C)CCC1	10 µL/min/1e6 cells	15 µL/min
100 nM	46 µL/min/mg	2.9	36 µL/min/mg		COc1ccc(O[C@H]2CC[C@@](C)(C(=O)O)CC2)cc1C(=O)N[C@@H]1[C@H]2CC[C@H](C2)[C@@H]1C(=O)NCC1(C)CCC1	6.1 µL/min/1e6 cells	10 µL/min
1580 nM	35 µL/min/mg	2.5	29 µL/min/mg		CC1(CNC(=O)[C@H]2[C@@H]3CC[C@@H](C3)[C@H]2NC(=O)c2cc(O[C@H]3CC[C@@](C)(C(=O)O)CC3)ccn2)CCC1	2.3 µL/min/1e6 cells	3.3 µL/min
31.6 nM	44 µL/min/mg	4.1	20 µL/min/mg		COc1cc(C(F)(F)F)c(O[C@H]2CC[C@@](C)(C(=O)O)CC2)cc1C(=O)N[C@@H]1[C@H]2CC[C@H](C2)[C@@H]1C(=O)NCC1(C)CCC1	3.9 µL/min/1e6 cells	93 µL/min
6.31 nM	62 µL/min/mg	3.3	36 µL/min/mg		CC1(CNC(=O)[C@H]2[C@@H]3CC[C@@H](C3)[C@H]2NC(=O)c2cc(O[C@H]3CC[C@@](C)(C(=O)O)CC3)c(F)cc2OCF)CCC1	8.4 µL/min/1e6 cells	15 µL/min
	7.6 µL/min/mg	2.6	5.7 µL/min/mg		COc1cc(F)c(O[C@H]2CC[C@@](C)(C(=O)O)CC2)cc1C(=O)N[C@@H]1[C@H]2CC[C@H](C2)[C@@H]1C(=O)NCC(C)C	< 1 µL/min/1e6 cells	< 1.4 µL/min
	83 µL/min/mg	4	44 µL/min/mg		CCc1cc(OC)c(C(=O)N[C@@H]2[C@H]3CC[C@H](C3)[C@@H]2C(=O)NCC2(C)CCC2)cc1O[C@H]1CC[C@@](C)(C(=O)O)CC1	3.9 µL/min/1e6 cells	9.1 µL/min
	17 µL/min/mg	3.3	12.6 µL/min/mg		CC1(CNC(=O)[C@H]2[C@@H]3CC[C@@H](C3)[C@H]2NC(=O)c2cc(O[C@H]3CC[C@@](C)(C(=O)O)CC3)c(F)cc2O)CCC1	58 µL/min/1e6 cells	105 µL/min
15.8 nM	27 µL/min/mg	3.3	14 µL/min/mg		CC1(CNC(=O)[C@H]2C3CCC(C3)[C@H]2NC(=O)c2cc(O[C@H]3CC[C@@](C)(C(=O)O)CC3)c(C#N)cc2F)CCC1 (stereo not given in full)	7.9 µL/min/1e6 cells	16 µL/min
	54 µL/min/mg	3.5	38 µL/min/mg		COc1cc(C)c(O[C@H]2CC[C@@](C)(C(=O)O)CC2)cc1C(=O)N[C@@H]1[C@H]2CC[C@H](C2)[C@@H]1C(=O)NCC1(C)CCC1	3.1 µL/min/1e6 cells	4.9 µL/min
